The data set is described as follows: Percent of drug absorbed by human intestine after oral administration. The class given is ADME, organism-based. Particulars: in vivo.

The results in this text go back to ChEMBL document CHEMBL1133113, “Fast calculation of molecular polar surface area as a sum of fragment-based contributions and its application to the prediction of drug transport properties” (J Med Chem, 2000).

In turn, `C=CCc1ccccc1OCC(O)CNC(C)C` (centres undefined) [ALPRENOLOL] yielded a Fa of 96%. `Cc1cc(=O)n(-c2ccccc2)n1C` [ANTIPYRINE] displayed a Fa of 97%. The value for `O=C(O)P(=O)(O)O` [FOSCARNET] was 17%; that for `OC[C@H]1O[C@@H](O[C@@H]2[C@@H](CO)O[C@](O)(CO)[C@H]2O)[C@H](O)[C@@H](O)[C@H]1O` [LACTULOSE] was 0.6%; that for `OC[C@@H](O)[C@@H](O)[C@H](O)[C@H](O)CO` [MANNITOL] was 26%. `Cc1ccccc1N1C(=O)c2cc(S(N)(=O)=O)c(Cl)cc2NC1C` (centres undefined) [METOLAZONE] returned a Fa of 64%. `O=C(O)c1cc(/N=N/c2ccc(O)c(C(=O)O)c2)ccc1O` [OLSALAZINE] showed a Fa of 2.3%. Regarding `C=CCOc1ccccc1OCC(O)CNC(C)C` (centres undefined) [OXPRENOLOL], the Fa is 97%. Regarding `CC(C)NCC(O)COc1cccc2[nH]ccc12` (centres undefined) [PINDOLOL], the Fa is 92%.

Regarding `CC(=O)Nc1ccc(OCC(O)CNC(C)C)cc1` (centres undefined) [PRACTOLOL], the Fa came to 95%. `OC[C@H]1O[C@H](OC[C@H]2O[C@H](O[C@]3(CO)O[C@H](CO)[C@@H](O)[C@@H]3O)[C@H](O)[C@@H](O)[C@@H]2O)[C@H](O)[C@@H](O)[C@H]1O` [RAFFINOSE] showed a Fa of 0.3%. `O=C(O)c1cc(/N=N/c2ccc(S(=O)(=O)Nc3ccccn3)cc2)ccc1O` [SULFASALAZINE] displayed a Fa of 12%. In turn, `CCN1CCCC1CNC(=O)c1cc(S(N)(=O)=O)ccc1OC` (centres undefined) [SULPIRIDE] had a Fa of 36%. In turn, `NC[C@H]1CC[C@H](C(=O)O)CC1` [TRANEXAMIC ACID] registered a Fa of 55%.
